Assay results published in US7687456B2, “Compounds for enzyme inhibition” (Proteolix, Inc., priority 2005, dated 2010).

System: proteasome CT-L activity
Assay: Proteasome CT-L inhibition in blood of mice one hour after oral dosing
Format: in vivo
Conditions: 20 mg/kg PO, one hour post-dosing, blood lysate, substrate LLVY-AMC, relative to vehicle-dosed cohort
Description: Compounds were formulated in 10% PS80/NaCitrate (pH 3) vehicle and administered to mice orally (PO) (3 animals/cohort). One hour post-dosing, the animals were sacrificed and the following tissues harvested: blood, brain, adrenal gland, heart and liver. Whole blood (˜200 μl) was washed twice with PBS and lysed by hypotonic shock (300 μl 50 mM Tris pH 8, 5 mM EDTA). Blood lysates were stored at −80° C. until assayed. Blood lysates were clarified by centrifugation in a microcentrifuge. The CT-L specific activity of proteasome in each lysate was evaluated by determining: a) the protein concentration by modified Bradford assay with bovine gamma globulin as a standard; and b) the rate of cleavage of the fluorogenic proteasome substrate LLVY-AMC. The percent proteasome activity for the analog-treated animals was calculated by dividing of the average specific activity for each analog-dosed cohort by the average specific activity of the vehicle-dosed cohort. Percent proteasome inhibition was calculated by subtracting percent proteasome activity from 100. Equivalents

Compound | proteasome CT-L inhibition [%]
COC[C@H](NC(=O)c1cc(C)on1)C(=O)N[C@H](C(=O)N[C@@H](CC(C)C)C(=O)[C@@]1(C)CO1)C(C)C [Compound 029] | > 70
COC[C@H](NC(=O)c1cc(C)on1)C(=O)N[C@@H](Cc1cscn1)C(=O)N[C@@H](CC(C)C)C(=O)[C@@]1(C)CO1 [Compound 039] | > 75
COC[C@H](NC(=O)c1cc(C)on1)C(=O)N[C@@H](C)C(=O)N[C@@H](CC(C)C)C(=O)[C@@]1(C)CO1 [Compound 045] | > 80
Cc1cc(C(=O)N[C@@H](Cc2ccccn2)C(=O)N[C@@H](Cc2ccccc2)C(=O)N[C@@H](CC(C)C)C(=O)[C@@]2(C)CO2)no1 [Compound 055] | > 80
COC[C@H](NC(=O)c1cc(C)on1)C(=O)N[C@@H](COC)C(=O)N[C@@H](CC(C)C)C(=O)[C@@]1(C)CO1 [Compound 075] | > 80
COC[C@H](NC(=O)c1ccon1)C(=O)N[C@@H](COC)C(=O)N[C@@H](CC(C)C)C(=O)[C@@]1(C)CO1 [Compound 083] | > 80
COC[C@H](NC(=O)c1cc(C)no1)C(=O)N[C@@H](COC)C(=O)N[C@@H](CC(C)C)C(=O)[C@@]1(C)CO1 [Compound 085] | > 50
COC[C@H](NC(=O)c1cc(C)on1)C(=O)N[C@@H](COC)C(=O)N[C@@H](Cc1ccccc1)C(=O)[C@@]1(C)CO1 [Compound 088] | > 80
COC[C@H](NC(=O)c1cc(C)on1)C(=O)N[C@@H](COC)C(=O)N[C@@H](Cc1ccc(F)cc1)C(=O)[C@@]1(C)CO1 [Compound 091] | > 80

Same assay, conditions: 40 mg/kg PO, one hour post-dosing, blood lysate, substrate LLVY-AMC, relative to vehicle-dosed cohort

Compound | proteasome CT-L inhibition [%]
COC[C@H](NC(=O)c1cc(C)on1)C(=O)N[C@@H](Cc1ccccc1)C(=O)N[C@@H](CC(C)C)C(=O)[C@@]1(C)CO1 [Compound 010] | > 90
CC(C)C[C@H](NC(=O)c1cc(CN2CCOCC2)on1)C(=O)N[C@@H](Cc1ccccc1)C(=O)N[C@@H](CC(C)C)C(=O)[C@@]1(C)CO1 [Compound 023] | > 80
CC(C)C[C@H](NC(=O)c1cc(CN2CCOCC2)on1)C(=O)N[C@@H](Cc1cscn1)C(=O)N[C@@H](CC(C)C)C(=O)[C@@]1(C)CO1 [Compound 035] | > 90
CC(C)C[C@H](NC(=O)[C@H](Cc1ccccc1)NC(=O)[C@@H](NC(=O)c1cc(CN2CCOCC2)on1)C(C)C)C(=O)[C@@]1(C)CO1 [Compound 061] | > 80
COCC[C@H](NC(=O)c1cc(C(C)C)on1)C(=O)N[C@@H](Cc1ccccc1)C(=O)N[C@@H](CC(C)C)C(=O)[C@@]1(C)CO1 [Compound 068] | > 70
